From ChEMBL document CHEMBL4680129, “Hit-to-lead optimization of novel 2-alkylaminomethylquinoline derivatives as anti-chagas agents” (Eur J Med Chem, 2020) come the findings set out here.

The source made the active and inactive calls. No cut-off for these calls is given here.

For series [1], the system named is Trypanosoma cruzi. Nature of the series: Anti-chagasic activity against Trypanosoma cruzi trypomastigotes infected in C3H mouse assessed as reduction in parasitemia at 50 mg/kg, po treated 10 days post infection for 7 consecutive days by Neubauer chamber counting method relative to control. The note with it: time 7.0 day. Type of series: functional.
Series [2] relates to Trypanosoma cruzi. Nature of the series: Antitrypanosomal activity against Trypanosoma cruzi epimastigotes measured after 72 hrs by Neubauer hemocytometer counting method. The series is classed as functional, organism-based.
Series [3] concerns Trypanosoma cruzi. The series can be described thus: Antitrypanosomal activity against […] expressing beta-galactosidase infected in african green monkey VERO cells incubated for 5 days measured by microplate reader assay. Type of series: functional, organism-based. The note with it: 120 h.
A short description of series [4]: Selectivity index, ratio of CC50 African green monkey Vero cells to IC50 for Trypanosoma cruzi amastigotes. The series is classed as toxicity. The note with it: read-out: Selectivity Index.
The test system of series [5] is Trypanosoma cruzi. The series can be described thus: Anti-chagasic activity against Trypanosoma cruzi trypomastigotes infected in C3H mouse assessed as reduction in parasitemia at 10 mg/kg, po treated 10 days post infection for 7 consecutive days by Neubauer chamber counting method relative to control. The series is classed as functional. Also noted: scale not given: the % may be the effect or the level left. The note with it: time 7 day.

Series [6] has as its system Trypanosoma cruzi. The series can be described thus: Anti-chagasic activity against Trypanosoma cruzi trypomastigotes infected in C3H mouse assessed as increase in body weight at 10 mg/kg, po treated 10 days post infection measured on day 19 (reference value: -1.8%). The series is classed as functional. The note with it: time 9.0 day.
In series [7] the test system is Trypanosoma cruzi. Nature of the series: Antitrypanosomal activity against bloodstream Trypanosoma cruzi trypomastigotes measured after 24 hrs by Neubauer chamber method. The series is classed as functional, organism-based.
A short description of series [8]: Toxicity in C3H mouse infected with Trypanosoma cruzi trypomastigotes assessed as mortality at 10 to 50 mg/kg, po treated 10 days post infection for 7 consecutive days. The series is classed as organism-based. The note with it: in vivo, 168 h, dose 10-50 mg/kg, time 7 day.
Series [9] is described as follows: Cytotoxicity against African green monkey Vero cells assessed as reduction in cell viability measured after 24 hrs by MTT assay. The series is classed as cell-based. The note with it: chlorocebus sabaeus. On the technique in general: Tetrazolium assays rely on reduction of a dye to a coloured formazan, in cell work by metabolically active cells.
Series [10] concerns Trypanosoma cruzi. Nature of the series: Anti-chagasic activity against Trypanosoma cruzi trypomastigotes infected in C3H mouse assessed as physically healthy with shiny appearance at 10 mg/kg, po treated 10 days post infection measured on day 19. Type of series: functional, organism-based. The note with it: time 9.0 day.
A short description of series [11]: Selectivity index, ratio of CC50 African green monkey Vero cells to IC50 for Trypanosoma cruzi trypomastigotes. Type of series: toxicity. The note with it: read-out: Selectivity Index.
For series [12], the system named is Trypanosoma cruzi. The series can be described thus: Anti-chagasic activity against Trypanosoma cruzi trypomastigotes infected in C3H mouse assessed as well-groomed fur and alert at 10 mg/kg, po treated 10 days post infection measured on day 19. The series is classed as functional, organism-based. The note with it: time 9.0 day.
Series [13] has as its system Trypanosoma cruzi. Nature of the series: Anti-chagasic activity against Trypanosoma cruzi trypomastigotes infected in C3H mouse assessed as active behaviour at 10 mg/kg, po treated 10 days post infection measured on day 19. The series is classed as functional, organism-based. The note with it: time 9.0 day.
Series [14] can be described thus: Selectivity index, ratio of CC50 African green monkey Vero cells to IC50 for Trypanosoma cruzi epimastigotes. Type of series: toxicity. The note with it: read-out: Selectivity Index.

On to `O=C(Cn1ccnc1[N+](=O)[O-])NCc1ccccc1` [BENZNIDAZOLE], for which the result in the series with Trypanosoma cruzi [1] and in the series with Trypanosoma cruzi [6] was inactive. Besides, the results for the IC50 in the series on Trypanosoma cruzi [2], in the series on Trypanosoma cruzi [3] and in the series with Trypanosoma cruzi [7] were 5.8 µM, 3.6 µM and 34.1 µM, respectively. In addition, the selectivity ratio in series [4] is 196; in [11] it was 20.7; in [14], 122. Moreover, the Activity is recorded as 58.9% in the series with Trypanosoma cruzi [5] and “Non-Toxic” in [8]. Moreover, the CC50 (in general, the concentration giving 50% cytotoxicity) at 24 h in series [9] turned out to be 706 µM. Moreover, the outcome in the series on Trypanosoma cruzi [10], in the series on Trypanosoma cruzi [12] and in the series on Trypanosoma cruzi [13] was Active.
Regarding `O=C(O)c1c(CNCCN2CCOCC2)nc2ccc(Cl)cc2c1-c1ccccc1`, the results for the IC50 with Trypanosoma cruzi [2] and in the series with Trypanosoma cruzi [7] were 11.2 µM and 11.9 µM, respectively. Besides, in series [9], the CC50 at 24 h worked out at 221 µM. The selectivity ratio amounted to 18.5 in series [11] and 19.7 in series [14].
The like results for `O=C(O)c1c(CN2CCN(CCO)CC2)nc2ccc(Cl)cc2c1-c1ccccc1` were, in that order, 4.2 µM, 56.1 µM, 36 µM, 0.6 and 8.6.
